Results taken from patent US12186377B2, “Modulation of oxidative stress and amino acid metabolism for the treatment or prevention of diseases and disorders” (NEW YORK UNIVERSITY, priority 2019, dated 2025).
“Also recorded” adds a separate entry of the source. Where a name gives a salt, the structure may show the parent alone.

Key:
[1] = system: wildtype and Keap1 mutant Kras^G12D/+;p53^−/− lung adenocarcinoma cell lines; test: Cell proliferation assay (crystal violet), drug or amino acid deprived media; format: cell-based, mouse; settings: for sensitivity of Keap1 wildtype cells to NEAA depletion under oxidant treatment: wildtype cells treated with oxidative stress agents; for rescue of cell growth under serine deprived conditions by supplementation: 0.5 mM NAC, 50 μM Trolox, 3 mM formate, 16 μM thymidine, FIG. 7A
Protocol: (§1) For cell proliferation assays conducted under different drug or media conditions as indicated, cells growing in DMEM were trypsinized, counted and plated into 12 well plate dishes (BD/Falcon) in 1 mL of RPMI media. […] For deprivation experiments, cells were washed with PBS and media was replaced with 1 mL of complete RPMI or RPMI lacking indicated amino acid and supplemented with 10% dialyzed FBS and cells were re-treated with indicated drugs. RPMI was prepared from a powder mix without amino acids (US Biological) according to manufacturer's instructions. All other amino acids besides those indicated were added to the RPMI mixture in the same concentrations present in RPMI-1640 formulation (Cellgro, Corning). Proliferation experiments were carried out for 5 days post drug treatment and collected by staining. Cells were stained with a 0.5% crystal violet (Fisher) solution in 20% methanol. Plates were then washed, dried, and crystal violet was eluted in 400 μL of 10% acetic acid.

[2] = system: KPKJ wt and KPKJ V cells; test: Cell ROS level, DCFCA assay (FACS); format: cell-based, mouse; settings: positive control
Protocol: TET+ stands for 3 days treatment of 1 μg/ml doxycycline for inducing shRNA expression. G6PD knockdown induces more ROS in Keap1 wildtype cells. Keap1 mutants show lower cell ROS. ROS level was measured by DCFCA assay. G6PD KO induces accumulation of ROS in Keap1 wildtype cells. Measured by FACS (DCFCA assay.) TET treatment 4 day before measuring. H2O2 positive control is about 200-fold increase.

[3] = system: LKR (Kras^G12D/+;p53^+/+) cell lines; test: Cell proliferation assay in media lacking serine or asparagine, LKR lines; format: cell-based, mouse; settings: pre-treated with KI696 (11 μM printed elsewhere in the source), FIG. 5B
Protocol: as §1

[4] = system: murine Kras^G12D/+;p53^−/− pancreatic ductal adenocarcinoma cell line; test: Proliferation / viability of pancreatic cancer cell line; format: cell-based, mouse; settings: pre-treated with 1 μM KI696; 0.036 U/mL L-asparaginase 3 days, FIG. 5C, 5D
Protocol: RPMI was prepared from a powder mix without amino acids (US Biological) according to manufacturer's instructions. All other amino acids besides those indicated were added to the RPMI mixture in the same concentrations present in RPMI-1640 formulation (Cellgro, Corning). Proliferation experiments were carried out for 5 days post drug treatment and collected by staining. Cells were stained with a 0.5% crystal violet (Fisher) solution in 20% methanol. Plates were then washed, dried, and crystal violet was eluted in 400 μL of 10% acetic acid.

[5] = Davies et al., 2016; cited from earlier work
[6] = system: wildtype vs Keap1 mutant cells; test: GC/MS analysis of polar metabolites and stable isotope tracing in cells; format: cell-based, mouse; settings: for serine and glycine synthesis from [U^13C]-D glucose: serine depleted conditions, 250 nM CB-839 or 6 mM glutamate, FIG. 7E
Protocol: For analysis of cells, 1×10^5 cells were seeded in 1 mL of RPMI-1640 in 12 well plates. […] Media was then replaced with fresh RPMI lacking serine or asparagine where indicated and supplement with 10% FBS. For tracing experiments media contained 11 mM [U^13C]-D-glucose, 2 mM [U^13C]-L-glutamine, 2 mM [α^15N]-L-glutamine, or 285 μM [U^13C]-L-serine (Cambridge Isotope Laboratory). Cells were treated with 250 nM CB-839 and cultured for 1-3 hours. Cells were washed 2× in ice cold saline and then collected by scraping in 250 μL of 80% (v/v) of ice cold methanol containing 1.4 μg/mL norvaline (Sigma Aldrich). Samples were vortexed for 10 min at 4° C. and then centrifuged at max speed for 5 minutes. Supernatant was transferred to fresh tubes and then dried in a speed vac. For analysis of mouse plasma, whole blood was collected at the time of sacrifice by a retro-orbital bleed with heparin coated capillary tubes (Fisher) into EDTA containing microcentrifuge tubes. Whole blood was centrifuged for 5 minutes at 1600 g. Cleared plasma was transferred to fresh tubes and 4 μL of plasma was then aliquoted and used for analysis. 80% (v/v) methanol containing 1.4 μg/mL norvaline was added to plasma and samples were then dried in a speed vac. […] After derivatization, samples were analyzed by GC-MS using an HP-5MS column (Agilent Technologies) in an Agilent Intuvo gas chromatograph coupled to an Agilent 5997B mass spectrometer. […]
The MS system operated under electron impact ionization at 70 eV and the MS source and quadrupole were held at 230° C. and 150° C. respectively the detector was used in scanning mode, and the scanned ion range was 10-650 m/z. Mass isotopomer distributions were determined by integrating the appropriate ion fragments for each metabolite (Lewis et al., 2014, Molecular cell 55, 253-263) using MATLAB (Mathworks) and an algorithm adapted from Fernandez and colleagues (Fernandez et al., 1996, Journal of mass spectrometry: JMS 31, 255-262) that corrects for natural abundance.

[7] = system: KPKJ Vector (Keap1 KO) cells transduced with sgG6pd and sgPGD; test: Colony formation assay, metabolite rescue of G6PD KO / PGD KO cells; format: cell-based, mouse; settings: FIG. 18
From the text: Colony formation assay of KPKJ Vector (Keap1 KO) cells transduced with sgTom, sgG6pd and sgPGD, and rescued with several metabolites.

[8] = system: cell lines with different genetic status of Keap1; test: Relative viability in response to succinylacetone; format: cell-based; settings: dominant negative Keap1 alleles vs Keap1 mutant cells, FIG. 35B
From the text: FIG. 35A depicts a western blot validation of various Keap1 cDNA constructs including WT and multiple mutants found in LUAD. FIG. 35B depicts the relative viability of cell lines with different genetic status of Keap1 in response to different concentrations of succinylacetone, an inhibitor of Alas1.

[9] = system: KP or KPK cells; test: Cell viability with exogenous heme/hemin after Alas1 knock-down/out; format: cell-based, mouse
From the text: FIG. 36A depicts the cell viability of KP or KPK cells with guide RNAs against Alas1 or control in the presence of increasing amounts of Heme/Hemin.
FIG. 37A depicts a western blot validation of control or Alas1 targeting shRNAs in KP/KPK cells. FIG. 37B depicts the relative viability of KP/KPK cells in response to doxycycline inducible shRNA knockdown of Alas1.

[10] = system: KPK cells; test: Western blot of Alas1 and Hmox1 with exogenous heme/hemin; format: cell-based, mouse; settings: increasing amounts of exogenous heme/hemin, FIG. 36B
[11] = system: wildtype vs Keap1 mutant Kras^G12D/+;p53^−/− lung adenocarcinoma cells; test: Cell viability assay (cell titer glo); format: cell-based, mouse
Protocol: For cell viability assays cells were plated in a white, opaque 96-well plate with clear bottom at a density of 1000 cells/well in RPMI or RPMI with modified amino acid content. After attachment, CB-839 (Selleck) or L-Asparaginase (AbCam) were added at the indicated concentrations. After 3 days, cell viability in the presence of all compounds was assessed by cell titer glo (Promega).

[12] = system: Keap1 mutant subcutaneous tumors; test: Subcutaneous tumor growth, Keap1 mutant tumors; format: in vivo, C57B6 mice
Protocol: (§2) 5×10^5 cells were implanted subcutaneously into C57B6 mice. Tumor volume was measured by caliper and volume was calculated (Length×Width^2×0.5). After tumor establishment phase (tumor volume ˜50 mm^3), animals were randomized and assigned to a treatment group. Animals either received an amino acid control diet, diet lacking both serine and glycine, or a diet lacking asparagine (Envigo and TestDiet), 200 mg/kg CB-839 or vehicle (Calithera) twice daily administered through oral gavage as previously described (Davidson et al., 2016, Cell Metab 23, 517-528), 60 U of L-Asparaginase (Abcam) or vehicle once daily administered through intraperitoneal injection as before (Knott et al., 2018, Nature 554, 378-381) or some treatment combination as indicated.

[13] = system: wildtype subcutaneous tumors; test: Subcutaneous tumor growth, wildtype tumors; format: in vivo, C57B6 mice
Protocol: as §2

[14] = system: wildtype vs Keap1 mutant Kras^G12D/+;p53^−/− lung adenocarcinoma cells; settings: previously shown (Romero 2017; Sayin 2017); cited from earlier work
[15] = GC/MS plasma amino acid levels in tumor-bearing mice; format: in vivo; settings: L-asparaginase vs asparagine deficient diet, FIG. 11A
Protocol: For analysis of cells, 1×10^5 cells were seeded in 1 mL of RPMI-1640 in 12 well plates. […] Media was then replaced with fresh RPMI lacking serine or asparagine where indicated and supplement with 10% FBS. For tracing experiments media contained 11 mM [U^13C]-D-glucose, 2 mM [U^13C]-L-glutamine, 2 mM [α^15N]-L-glutamine, or 285 μM [U^13C]-L-serine (Cambridge Isotope Laboratory). Cells were treated with 250 nM CB-839 and cultured for 1-3 hours. Cells were washed 2× in ice cold saline and then collected by scraping in 250 μL of 80% (v/v) of ice cold methanol containing 1.4 μg/mL norvaline (Sigma Aldrich). Samples were vortexed for 10 min at 4° C. and then centrifuged at max speed for 5 minutes. Supernatant was transferred to fresh tubes and then dried in a speed vac. For analysis of mouse plasma, whole blood was collected at the time of sacrifice by a retro-orbital bleed with heparin coated capillary tubes (Fisher) into EDTA containing microcentrifuge tubes. Whole blood was centrifuged for 5 minutes at 1600 g. Cleared plasma was transferred to fresh tubes and 4 μL of plasma was then aliquoted and used for analysis. […] After derivatization, samples were analyzed by GC-MS using an HP-5MS column (Agilent Technologies) in an Agilent Intuvo gas chromatograph coupled to an Agilent 5997B mass spectrometer. […]

[16] = 60 U once daily intraperitoneal, FIG. 9B

Compound: COC(=O)/C=C/C(=O)OC [DMF, di-methyl fumarate]
- sensitivity of Keap1 wildtype cells to NEAA depletion under oxidant treatment [1]: sensitized to NEAA depletion

Compound: OO [H2O2]
- cell ROS level increase [2]: about 200 fold

Compound: COc1cc([C@@H](CC(=O)O)c2ccc(C)c(CN3C[C@@H](C)Oc4ccccc4S3(=O)=O)c2)cc2nnn(C)c12 [KI696]
- proliferation in media lacking serine or asparagine, p53 wildtype LKR lines [3]: growth suppression
- growth upon serine deprivation or L-asparaginase treatment after Nrf2 activation [4]: robust growth suppression
- pharmacokinetics [5]: prevent its efficient use in vivo

Compound: N[C@@H](CCC(=O)O)C(=O)O [glutamate]
- intracellular glutamate levels ([6]; Keap1 mutant cells, 500 nM Erastin or 6 mM glutamate, FIG. 6B, 6C): significantly increased intracellular glutamate levels
- serine and glycine synthesis from [U^13C]-D glucose [6]: increase in both serine and glycine synthesis
- G6PD KO rescue (colony formation) [7]: can rescue G6PD KO cells; also recorded: Completely rescue

Compound: Cc1cn([C@H]2C[C@H](O)[C@@H](CO)O2)c(=O)[nH]c1=O [thymidine]
- rescue of cell growth under serine deprived conditions by supplementation ([1]; Keap1 mutant cells): complete rescue of cell growth

Compound: CC(=O)CC(=O)CCC(=O)O [succinylacetone, 4,6-Dioxoheptanoic acid]
- relative viability in response to succinylacetone [8]: further sensitize Keap1 mutant cells to heme synthesis inhibition

Compound: C[C@H](N)C(=O)O [alanine]
- proliferation on alanine supplementation ([1]; Keap1 mutant cells, RPMI 10% dialyzed FBS, FIG. 2D): increase in cancer cell proliferation

Compound: C=CC1=C(C)c2cc3[n-]c(cc4[n-]c(cc5nc(cc1n2)C(C)=C5C=C)c(C)c4CCC(=O)O)c(CCC(=O)O)c3C.[Fe+2] [heme/hemin]
- rescue of growth defects after shRNA knockdown of Alas1 ([9]; KP/KPK cells, doxycycline inducible shRNA, FIG. 37B): completely rescues any growth defects
- exogenous heme needed to rescue growth ([9]; Keap1-mutant (KPK) vs KP cells with guide RNAs against Alas1, FIG. 36A): require higher levels of exogenous heme to rescue growth
- Alas1 protein level [10]: decrease Alas1
- Hmox1 protein level [10]: increase Hmox1

Compound: O=C(O)CCC(=O)C(=O)O [a-KG]
- G6PD KO rescue (colony formation) [7]: can rescue G6PD KO cells; also recorded: Completely rescue

Compound: O=C(Cc1cccc(OC(F)(F)F)c1)Nc1ccc(CCCCc2nnc(NC(=O)Cc3ccccn3)s2)nn1 [CB-839]
- effect of very low doses of CB-839 alone on cell growth ([11]; CB-839 alone): do not affect cell growth
- sensitivity to very low doses of CB-839 with L-asparaginase ([11]; Keap1 mutant cells, 0.1 U/mL L-asparaginase, FIG. 6I): increased sensitivity
- sensitivity to very low doses of CB-839 in reduced serine ([11]; Keap1 mutant cells, serine at 10% of normal concentration, FIG. 6J): increased sensitivity
- serine and glycine synthesis from [U^13C]-D glucose [6]: decrease in both serine and glycine synthesis
- growth of Keap1 mutant tumors, CB-839 alone ([12]; 200 mg/kg twice daily oral gavage, FIG. 9E): sensitive
- growth of Keap1 mutant tumors, CB-839 with −SG diet ([12]; compared to either monotherapy, FIG. 9E): further reduced Keap1 mutant tumor growth
- growth of wildtype tumors, CB-839 alone ([13]; 200 mg/kg twice daily oral gavage, FIG. 9F): no effect on wildtype tumor growth
- growth of wildtype tumors, CB-839 with −SG diet ([13]; diet lacking serine and glycine, FIG. 9F): strong synergistic effect and significantly reduced wildtype tumor growth; also recorded: strongly sensitizes Keap1 wildtype tumors to dietary restriction of serine and glycine
- sensitivity of Keap1 mutant cells to CB-839 [14]: highly sensitive

Compound: L-asparaginase
- relative viability on L-asparaginase treatment ([11]; Keap1 mutant vs wildtype cells, RPMI, 3 days, FIG. 1D): increased sensitivity
- growth of Keap1 mutant tumors, L-asparaginase [12, 16]: blunted growth
- growth of Keap1 mutant tumors, L-asparaginase alone or with asparagine free diet ([12]; FIG. 9D): strongly blunts the growth
- growth of wildtype tumors, L-asparaginase [13, 16]: not wildtype tumors
- plasma levels of asparagine [15]: more effective at reducing plasma levels of asparagine than the asparagine diet

Compound: Cc1c(C)c2c(c(C)c1O)CCC(C)(C(=O)O)O2 (stereo not shown) [Trolox]
- rescue of cell growth under serine deprived conditions by supplementation ([1]; Keap1 mutant cells): did not rescue cell growth
- G6PD KO rescue (colony formation) [7]: No rescue

Compound: CCCCS(=N)(=O)CCC(N)C(=O)O [BSO, L-buthionine-sulfoximine]
- sensitivity of Keap1 wildtype cells to NEAA depletion under oxidant treatment [1]: sensitized to NEAA depletion

Compound: CC(=O)N[C@@H](CS)C(=O)O [NAC, N-acetyl-L-cysteine]
- rescue of cell growth under serine deprived conditions by supplementation ([1]; Keap1 mutant cells): did not rescue cell growth
- G6PD KO rescue (colony formation) [7]: No rescue

Compound: O=CO [formate]
- rescue of cell growth under serine deprived conditions by supplementation ([1]; Keap1 mutant cells): complete rescue of cell growth

Compound: CC(=O)OC[C@H]1O[C@@H]([S-])[C@H](OC(C)=O)[C@@H](OC(C)=O)[C@@H]1OC(C)=O.CCP(CC)CC.[Au+] [Auranofin, 3,4,5-triacetyloxy-6-(acetyloxymethyl) oxane-2-thiolate; triethylphosphanium]
- sensitivity of Keap1 wildtype cells to NEAA depletion under oxidant treatment [1]: sensitized to NEAA depletion
